According to ChEMBL document CHEMBL2311317, “Organosilicon molecules with medicinal applications” (J Med Chem, 2013):
One block for each compound: values may come before it. Activity calls are given as the source filed them. The calls are words filed in the database; no cut-off is given here.

How the values were obtained:
A2780 = assay: Growth inhibition of human A2780 cells by Sulforhodamine B assay; format: functional
[1] = Inhibition of thermolysin metalloprotease (unknown origin); set-up: species or system Homo sapiens
HL-60 = assay: Growth inhibition of human HL60 cells by Sulforhodamine B assay; format: functional
[2] = target: Opioid receptors; mu/kappa/delta (Homo sapiens) (UniProt P41145+P41143+P35372); assay: Inhibition of opioid receptor (unknown origin) at […]
HepG2 = assay: Growth inhibition of human HepG2 cells; format: functional, cell-based
[3] = Inhibition of serine protease (unknown origin); set-up: species or system Homo sapiens
[4] = Inhibition of HIV protease; set-up: species or system Human immunodeficiency virus

Sequence of Opioid receptors; mu/kappa/delta (Homo sapiens) (P35372 whole entry, looked up): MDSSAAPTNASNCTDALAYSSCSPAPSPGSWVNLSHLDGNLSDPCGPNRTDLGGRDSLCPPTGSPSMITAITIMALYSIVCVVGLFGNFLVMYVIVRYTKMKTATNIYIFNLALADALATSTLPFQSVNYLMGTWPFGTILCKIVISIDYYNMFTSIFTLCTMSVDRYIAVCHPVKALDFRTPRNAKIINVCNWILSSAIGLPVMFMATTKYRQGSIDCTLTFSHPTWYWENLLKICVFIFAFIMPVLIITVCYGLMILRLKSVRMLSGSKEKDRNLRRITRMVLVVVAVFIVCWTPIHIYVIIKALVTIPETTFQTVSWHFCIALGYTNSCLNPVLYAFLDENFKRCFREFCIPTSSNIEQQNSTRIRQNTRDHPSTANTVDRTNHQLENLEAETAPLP
Sequence of Opioid receptors; mu/kappa/delta (Homo sapiens) (P41143 whole entry, looked up): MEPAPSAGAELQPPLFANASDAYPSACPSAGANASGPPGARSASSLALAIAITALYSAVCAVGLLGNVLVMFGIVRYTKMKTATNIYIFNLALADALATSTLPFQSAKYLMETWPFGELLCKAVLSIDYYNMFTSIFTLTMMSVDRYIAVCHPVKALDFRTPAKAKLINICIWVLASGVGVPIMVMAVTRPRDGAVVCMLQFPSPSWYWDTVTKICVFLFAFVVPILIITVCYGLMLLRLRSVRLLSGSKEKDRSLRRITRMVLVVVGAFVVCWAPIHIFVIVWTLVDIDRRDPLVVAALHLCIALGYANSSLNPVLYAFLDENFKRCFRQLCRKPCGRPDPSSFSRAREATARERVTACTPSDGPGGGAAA
Sequence of Opioid receptors; mu/kappa/delta (Homo sapiens) (P41145 whole entry, looked up): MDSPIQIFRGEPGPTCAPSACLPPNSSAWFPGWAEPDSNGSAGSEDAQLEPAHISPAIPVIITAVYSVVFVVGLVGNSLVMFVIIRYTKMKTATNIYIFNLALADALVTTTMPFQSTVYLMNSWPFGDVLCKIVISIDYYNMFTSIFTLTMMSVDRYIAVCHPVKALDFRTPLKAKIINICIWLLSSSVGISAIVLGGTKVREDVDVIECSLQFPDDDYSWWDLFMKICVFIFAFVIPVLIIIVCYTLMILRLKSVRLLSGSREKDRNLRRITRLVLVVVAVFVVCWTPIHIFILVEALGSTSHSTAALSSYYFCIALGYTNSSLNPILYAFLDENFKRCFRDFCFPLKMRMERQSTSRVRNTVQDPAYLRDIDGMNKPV

GI50 (A2780): 7.3 µM
Structure (SMILES): COC(=O)/C=C\[C@H]1OCCC[C@H]1O[Si](C)(C)C(C)(C)C (relative stereo)

IC50 [1]: 0.041 µM
Structure (SMILES): CC(C)C[C@H](NC(=O)[C@H](Cc1ccccc1)C[Si](O)(O)CNC(=O)CCc1ccccc1)C(=O)O

GI50 (HL-60): inactive
Structure (SMILES): COC(=O)/C=C/C[C@H]1OCCC[C@@H]1O (relative stereo)

Structure (SMILES): COc1ccc(C(CN(C)C)[Si]2(O)CCCC2)cc1 (centres undefined)
inhibition [2]: < 50%

GI50 (A2780): 98 µM
Structure (SMILES): COC(=O)/C=C/[C@H]1OCCC[C@H]1O[Si](C)(C)C(C)(C)C

GI50 (HL-60): inactive
Structure (SMILES): COC(=O)/C=C/C[C@H]1OCCC[C@@H]1OC(=O)c1ccccc1 (relative stereo)

GI50 (A2780): > 100 µM
Structure (SMILES): CC(C)(C)[Si](C)(C)O[C@@H]1CCCO[C@@H]1/C=C\CO (relative stereo)

EC50 (HepG2): 17 µM
Structure (SMILES): COc1ccc([Si](C)(C)[C@H]2[C@H](CC(=O)N3CCC[C@H]3CO)O[C@@]3(C(=O)N(Cc4cccc(I)c4)c4ccccc43)[C@@H]2C)cc1

GI50 (HL-60): 22 µM
Structure (SMILES): COC(=O)/C=C/C[C@H]1OCCC[C@@H]1O[Si](C)(C)C(C)(C)C (relative stereo)

Structure (SMILES): COc1ccc(C(CN(C)C)[Si]2(O)CCCCC2)cc1 (racemic)
inhibition [2]: < 50%

inhibition [2]: < 50%
Structure (SMILES): CN(C)CC(c1ccccc1)[Si]1(O)CCCCC1 (centres undefined)

GI50 (HL-60): inactive
Structure (SMILES): COC(=O)/C=C/C[C@H]1OCCC[C@@H]1OC(C)=O

Ki [3]: 0.107 µM
Structure (SMILES): C[C@H](C[Si](O)(O)[C@H](Cc1ccccc1)NC(=O)[C@@H]1CCCN1)C(N)=O

IC50 [4]: 0.014 µM
Structure (SMILES): O=C(N[C@H]1c2ccccc2C[C@H]1O)[C@H](Cc1ccccc1)C[Si](O)(O)C[C@@H](Cc1ccccc1)C(=O)N[C@H]1c2ccccc2C[C@H]1O
